Laboratory results taken from article PMC10892984, “Novel Antineoplastic Inducers of Mitochondrial Apoptosis in Human Cancer Cells” (Molecules, 2024).

What was measured:
HS 578T = conditions: 48 h
T-47D = conditions: 48 h
MALME-3M = conditions: 48 h
[1] = tested on: 60 human cancer cell lines
Source text: The defined tumor inhibition criterion (GI50, TGI, or LC50) is recalculated in log10 expression, and the colored bars, which indicate then the sensitivity of the individual tumor cell line to the agent, are given in log10 units. […] The most important feature is at the bottom of the page: the MID (Mean of Inhibition Data) indicates the mean concentration for all tested cell lines required for the drug to reach the defined tumor inhibition criterion (GI50, TGI, or LC50). It is given in Log10GI50, Log10TGI, and Log10LC50. From those values, the corresponding MID is calculated. […] The MID can be transformed from logarithmic into linear concentrations by the formula: c = 10^MID.
The human tumor cell lines of the cancer screening panel are grown in RPMI-1640 medium containing 5% fetal bovine serum (FBS) and 2 mM L-glutamine. For a typical screening experiment, cells are inoculated into 96-well microtiter plates in 100 μL at plating densities ranging from 5000 to 40,000 cells/well, depending on the doubling time of individual cell lines. After cell inoculation, the microtiter plates are incubated at 37 °C, 5% CO2, 95% air, and 100% relative humidity for 24 h prior to the addition of experimental drugs. After 24 h, two plates of each cell line are fixed in situ with trichloroacetic acid (TCA) to represent a measurement of the cell population for each cell line at the time of drug addition (Tz). Experimental drugs are solubilized in dimethyl sulfoxide (DMSO) at 400-fold the desired final maximum test concentration and stored frozen prior to use. At the time of drug addition, an aliquot of frozen concentrate is thawed and diluted to twice the desired final maximum test concentration with a complete medium containing 50 μg/mL gentamicin. Additional four, 10-fold or ½ log serial dilutions are made to provide a total of five drug concentrations plus control. Aliquots of 100 μL of these different drug dilutions are added to the appropriate microtiter wells already containing 100 μL of the medium, resulting in the required final drug concentrations.
Following drug addition, the plates are incubated for an additional 48 h at 37 °C, 5% CO2, 95% air, and 100% relative humidity. For adherent cells, the assay is terminated by the addition of cold TCA. Cells are fixed in situ by the gentle addition of 50 μL of cold 50% (m/v) TCA (final concentration, 10% TCA) and incubated for 60 min at 4 °C. The supernatant is discarded, and the plates are washed five times with tap water and air dried. Sulforhodamine B (SRB) solution [100 μL at 0.4% (m/v) in 1% acetic acid] is added to each well, and plates are incubated for 10 min at room temperature. After staining, unbound dye is removed by washing five times with 1% acetic acid, and the plates are air dried. Bound stain is subsequently solubilized with 10 mM trizma® base [2-amino-2-(hydroxymethyl)-1,3-propandiol, tris base, trometamol], and the absorbance is read on an automated plate reader at a wavelength of λ = 515 nm. For suspension cells, the methodology is the same, except that the assay is terminated by fixing settled cells at the bottom of the wells by gently adding 50 μL of 80% TCA (final concentration, 16% TCA). Using the seven absorbance measurements [time zero, (Tz), control growth, (C), and test growth in the presence of the drug at the five concentration levels (Ti)], the percentage growth is calculated at each of the drug concentration levels. Percentage growth inhibition is calculated as:[(Ti − Tz)/(C − Tz)] × 100 for concentrations for which Ti ≥ Tz [(Ti − Tz)/Tz] × 100 for concentrations for which Ti < Tz
Three dose-response parameters are calculated for each experimental agent.

`c1cc(CNC23CC4CC(CC(C4)C2)C3)cc(C[N+](Cc2cccc(CNC34CC5CC(CC(C5)C3)C4)c2)(Cc2cccc(CNC34CC5CC(CC(C5)C3)C4)c2)Cc2cccc(CNC34CC5CC(CC(C5)C3)C4)c2)c1` (stereo not shown) [Compound 1, tetrakis{3-[(tricyclo[3.3.1.1^3,7]decan-1-ammonio)methyl]benzyl}ammonium pentachloride] was tested, and the GI50 (NCI-H23; Homo sapiens, NCI-H23, 48 h) was 1.53 µM, the CC50 (NCI-H23; Homo sapiens, NCI-H23, 48 h, read-out: LC50) was 28.2 µM and the TGI (NCI-H23; NCI-H23, non-small-cell lung cancer, mutant p53, 48 h) was 6.36 µM. For the same compound, the GI50 (MDA-MB-435; Homo sapiens, MDA-MB-435, 48 h) was 0.825 µM, the CC50 (MDA-MB-435; Homo sapiens, MDA-MB-435, 48 h, read-out: LC50) was 6.5 µM and the TGI (MDA-MB-435; MDA-MB-435, melanoma, mutant p53, 48 h) was 2.11 µM. The TGI (HS 578T; HS 578T, breast cancer, mutant p53) was 11.8 µM, the GI50 (HS 578T; Homo sapiens, Hs-578T) was 1.92 µM and the CC50 (HS 578T; Homo sapiens, Hs-578T, read-out: LC50) was greater than 50 µM. It also gave a GI50 (M14; Homo sapiens, M14, 48 h) of 0.803 µM, a CC50 (M14; Homo sapiens, M14, 48 h, read-out: LC50) of 6.82 µM and a TGI (M14; M14, melanoma, mutant p53, 48 h) of 2.08 µM. It also gave a GI50 (SF-295; Homo sapiens, SF-295, 48 h) of 3.05 µM, a CC50 (SF-295; Homo sapiens, SF-295, 48 h, read-out: LC50) of 28.2 µM and a TGI (SF-295; SF-295, CNS cancer (brain tumor), mutant p53, 48 h) of 10.4 µM. The GI50 (NCI-H226; Homo sapiens, NCI-H226, 48 h) was 2.76 µM, the CC50 (NCI-H226; Homo sapiens, NCI-H226, 48 h, read-out: LC50) was 31.2 µM and the TGI (NCI-H226; NCI-H226, non-small-cell lung cancer, p53 Lit. inconclusive, 48 h) was 10.8 µM. For the same compound, the GI50 (SK-MEL-28; Homo sapiens, SK-MEL-28, 48 h) was 1.66 µM, the CC50 (SK-MEL-28; Homo sapiens, SK-MEL-28, 48 h, read-out: LC50) was 21.9 µM and the TGI (SK-MEL-28; SK-MEL-28, melanoma, mutant p53, 48 h) was 7.91 µM. For the same compound, the GI50 (UO-31; Homo sapiens, UO-31, 48 h) was 0.817 µM, the CC50 (UO-31; Homo sapiens, UO-31, 48 h, read-out: LC50) was 4.73 µM and the TGI (UO-31; UO-31, renal cancer, wild-type p53, 48 h) was 1.96 µM. The GI50 (OVCAR-4; Homo sapiens, OVCAR-4, 48 h) was 1.16 µM, the CC50 (OVCAR-4; Homo sapiens, OVCAR-4, 48 h, read-out: LC50) was 18.4 µM and the TGI (OVCAR-4; OVCAR-4, ovarian cancer, mutant p53, 48 h) was 5.45 µM. The TGI (HCT-116; HCT-116, colon cancer, wild-type p53, 48 h) was 2.01 µM, the GI50 (HCT-116; Homo sapiens, HCT-116, 48 h) was 0.728 µM and the CC50 (HCT-116; Homo sapiens, HCT-116, 48 h, read-out: LC50) was 6.47 µM. The GI50 (T-47D; Homo sapiens, T47D) was 1.34 µM, the CC50 (T-47D; Homo sapiens, T47D, read-out: LC50) was 38 µM and the TGI (T-47D; T-47D, breast cancer, mutant p53) was 6.72 µM. For the same compound, the TGI (HCC-2998; HCC-2998, colon cancer, mutant p53, 48 h) was 5.31 µM, the GI50 (HCC-2998; Homo sapiens, HCC 2998, 48 h) was 1.22 µM and the CC50 (HCC-2998; Homo sapiens, HCC 2998, 48 h, read-out: LC50) was 22.6 µM. The GI50 (MALME-3M; Homo sapiens, Malme-3M) was 0.839 µM, the CC50 (MALME-3M; Homo sapiens, Malme-3M, read-out: LC50) was 4.12 µM and the TGI (MALME-3M; MALME-3M, melanoma, wild-type p53) was 1.86 µM. For the same compound, the GI50 (MOLT-4; Homo sapiens, MOLT-4, 48 h) was 1.32 µM, the CC50 (MOLT-4; Homo sapiens, MOLT-4, 48 h, read-out: LC50) was greater than 50 µM and the TGI (MOLT-4; MOLT-4, leukemia, mutant p53, 48 h) was 4.09 µM. The GI50 (SW-620; Homo sapiens, SW-620, 48 h) was 1.25 µM, the CC50 (SW-620; Homo sapiens, SW-620, 48 h, read-out: LC50) was 17.2 µM and the TGI (SW-620; SW-620, colon cancer, mutant p53, 48 h) was 3.95 µM. It also gave a TGI (BT-549; BT-549, breast cancer, mutant p53, 48 h) of 2.77 µM, a GI50 (BT-549; Homo sapiens, BT-549, 48 h) of 1.02 µM and a CC50 (BT-549; Homo sapiens, BT-549, 48 h, read-out: LC50) of 10.2 µM. For the same compound, the GI50 (SNB-75; Homo sapiens, SNB-75, 48 h) was 2.34 µM, the CC50 (SNB-75; Homo sapiens, SNB-75, 48 h, read-out: LC50) was 27.9 µM and the TGI (SNB-75; SNB-75, CNS cancer (brain tumor), mutant p53, 48 h) was 9.73 µM. For the same compound, the GI50 (IGROV1; Homo sapiens, IGROV-1, 48 h) was 0.886 µM, the CC50 (IGROV1; Homo sapiens, IGROV-1, 48 h, read-out: LC50) was 8.65 µM and the TGI (IGROV1; IGROV1, ovarian cancer, mutant p53, 48 h) was 2.34 µM. The GI50 (TK-10; Homo sapiens, TK-10, 48 h) was 1.85 µM, the CC50 (TK-10; Homo sapiens, TK-10, 48 h, read-out: LC50) was 21.5 µM and the TGI (TK-10; TK-10, renal cancer, mutant p53, 48 h) was 7.17 µM. It also gave a GI50 (KM-12; Homo sapiens, KM12, 48 h) of 1.65 µM, a CC50 (KM-12; Homo sapiens, KM12, 48 h, read-out: LC50) of 20.6 µM and a TGI (KM-12; KM-12, colon cancer, mutant p53, 48 h) of 6.75 µM. It also gave a GI50 (SN12C; Homo sapiens, 48 h) of 1.41 µM, a CC50 (SN12C; Homo sapiens, 48 h, read-out: LC50) of 15.8 µM and a TGI (SN12C; renal cancer, mutant p53, 48 h) of 4.43 µM. The GI50 (NCI-H522; Homo sapiens, NCI-H522, 48 h) was 0.731 µM, the CC50 (NCI-H522; Homo sapiens, NCI-H522, 48 h, read-out: LC50) was 3.3 µM and the TGI (NCI-H522; NCI-H522, non-small-cell lung cancer, mutant p53, 48 h) was 1.55 µM. For the same compound, the GI50 ([1]; Homo sapiens, read-out: Mean of Inhibition Data (MID) GI50, 10^MID) was 1.29 µM, the CC50 ([1]; Homo sapiens, read-out: Mean of Inhibition Data (MID) LC50, 10^MID) was 16.6 µM and the “induction of cancer cell death (classification)” value ([1]; NCI 60 panel overall) was “tumoricidal”. The “Mean of Inhibition Data (MID) TGI, 10^MID” value ([1]; mean over all tested cell lines of the NCI 60 panel) was 4.677 µM, the TGI (HOP-62; HOP-62, non-small-cell lung cancer, mutant p53, 48 h) was 10.1 µM and the GI50 (HOP-62; Homo sapiens, HOP-62, 48 h) was 2.66 µM. For the same compound, the CC50 (HOP-62; Homo sapiens, HOP-62, 48 h, read-out: LC50) was 29.7 µM, the GI50 (UACC-62; Homo sapiens, UACC-62, 48 h) was 1.16 µM and the CC50 (UACC-62; Homo sapiens, UACC-62, 48 h, read-out: LC50) was 14.2 µM. The TGI (UACC-62; UACC-62, melanoma, wild-type p53, 48 h) was 3.68 µM, the GI50 (MDA-MB-231; Homo sapiens, MDA-MB-231, 48 h) was 2.09 µM and the CC50 (MDA-MB-231; Homo sapiens, MDA-MB-231, 48 h, read-out: LC50) was 22.7 µM. For the same compound, the TGI (MDA-MB-231; MDA-MB-231, breast cancer, mutant p53, 48 h) was 7.41 µM, the GI50 (NCI-H460; Homo sapiens, NCI-H460, 48 h) was 1.19 µM and the CC50 (NCI-H460; Homo sapiens, NCI-H460, 48 h, read-out: LC50) was 17.9 µM. For the same compound, the TGI (NCI-H460; NCI-H460, non-small-cell lung cancer, wild-type p53, 48 h) was 2.71 µM.
